Measurements published in US20260217717A1, “CDK2 INHIBITORS” (BLUEPRINT MEDICINES CORPORATION, priority 2023, published 2026).

What was measured:
[1] = target: T1, CDK2/Cyclin E (Homo sapiens, UniProt P24941); assay: CDK2/Cyclin E enzymatic phosphorylation assay (Caliper mobility shift); assay type: biochemical; conditions: read-out: Enzyme CDK2/cyclin E IC50; note: 1.0 mM ATP or ATP Km
T1 construct: purchased Eurofins 14-475
Experimental: (§1) Reactions proceeded until between 10% to 20% total peptides were phosphorylated at room temperature (25° C.) and were terminated with 35 mM 2,2′,2″,2′″-(ethane-1,2-diyldinitrilo)tetraacetic acid (EDTA). Product was detected using the Caliper mobility shift detection method where the phosphorylated peptide (product) and substrate were electrophoretically separated and measured. Percent activity was plotted against log concentration of compound and points to generate an apparent IC50.

[2] = target: T2, CDK1/Cyclin B1 (Homo sapiens, UniProt P06493); assay: CDK1/Cyclin B1 enzymatic phosphorylation assay (Caliper mobility shift); assay type: biochemical; conditions: read-out: Enzyme CDK1/cyclin B1 IC50
T2 construct: GST; purchased BPS 40454
Experimental: as §1

T2 sequence (P06493 whole entry): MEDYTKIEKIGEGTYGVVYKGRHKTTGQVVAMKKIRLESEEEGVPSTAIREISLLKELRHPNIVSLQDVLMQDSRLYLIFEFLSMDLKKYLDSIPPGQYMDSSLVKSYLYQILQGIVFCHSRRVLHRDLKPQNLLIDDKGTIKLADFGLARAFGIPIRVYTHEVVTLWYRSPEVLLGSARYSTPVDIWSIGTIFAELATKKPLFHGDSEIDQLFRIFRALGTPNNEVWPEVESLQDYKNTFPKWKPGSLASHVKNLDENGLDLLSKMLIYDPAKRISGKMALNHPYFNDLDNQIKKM
T2 sequence (P14635 whole entry partner): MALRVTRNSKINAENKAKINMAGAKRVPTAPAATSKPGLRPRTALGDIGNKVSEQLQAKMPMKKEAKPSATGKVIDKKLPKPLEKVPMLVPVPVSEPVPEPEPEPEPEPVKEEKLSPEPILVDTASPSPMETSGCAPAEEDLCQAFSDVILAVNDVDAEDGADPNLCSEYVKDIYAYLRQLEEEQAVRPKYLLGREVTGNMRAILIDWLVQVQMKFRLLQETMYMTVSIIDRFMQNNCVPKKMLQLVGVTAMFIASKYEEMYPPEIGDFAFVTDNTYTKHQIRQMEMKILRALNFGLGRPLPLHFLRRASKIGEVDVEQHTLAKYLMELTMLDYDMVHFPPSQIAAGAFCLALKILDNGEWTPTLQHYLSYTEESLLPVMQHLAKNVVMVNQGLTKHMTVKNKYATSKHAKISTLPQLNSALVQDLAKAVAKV

IC50 [1]: 56 nM | IC50 [2]: 2080 nM
SMILES: CC(C)c1cc(Nc2cnc3cnn(CC4CCN(C)CC4)c3n2)n[nH]1 [Example 64, N-(5-isopropyl-1H-pyrazol-3-yl)-1-((1-methylpiperidin-4-yl)methyl)-1H-pyrazolo[3,4-b]pyrazin-6-amine]
